Consider four compounds from US8481457B2, “Method for the improved use of the production potential of transgenic plants” (priority 2007, dated 2013).

Assay type in all cases: in vivo
The subject of test [1] is larvae of the cotton bollworm (Heliothis armigera). Put plainly: Example 5: Heliothis armigera on Cotton (DP444 BG/RR), dip application, kill in %. As for the experimental part:
Individually potted transgenic cotton plants with Lepidoptera resistance and herbicide resistance (cultivar DP444 BG/RR) are treated in 2 replications against larvae of the cotton bollworm (Heliothis armigera). Application is carried out by dip application with the respective active compound at the desired application rate.
(§1) After the desired period of time, the kill in % is determined. 100% means that all caterpillars have been killed; 0% means that none of the caterpillars have been killed.

Test [2] deals with armyworm (Spodoptera frugiperda). Put plainly: Example 10: Spodoptera frugiperda on Maize (Drench Application), kill in %. To be noted: 100 ppm. As for the experimental part:
Pots with in each case 5 transgenic maize plants having Coleoptera. Lepidoptera and/or herbicide resistance (cultivars HC33CRW×LH287BTCRW, LH332RR×LH324BT, LH24-4RR×LH324 and FR 1064LL×FR 2108) are treated in 2 replications against the armyworm (Spodoptera frugiperda). Application is carried out by drench application with the respective active compound at the desired application rate.
as §1

The test system is the same in test [3]. Put plainly: Example 9: Spodoptera frugiperda on Maize, dip application, kill in %. To be noted: 100 ppm. As for the experimental part: Pots with in each case 5 transgenic maize plants having Coleoptera, Lepidoptera and/or herbicide resistance (cultivars HC33CRW×LH287BTCRW, TR47×TR 7322 BT) are treated in 2 replications against the armyworm (Spodoptera frugiperda). Application is carried out by dip application with the respective active compound at the desired application rate.
as §1

Test [4] has as its system larvae of the beet armyworm (Spodoptera exigua). Put plainly: Example 8: Spodoptera exigua on Maize, dip application, kill in %. To be noted: 100 ppm. How it is done:
Pots with in each case 5 transgenic maize plants having Coleoptera, Lepidoptera and/or herbicide resistance (cultivars LH332RR×LH324BT, LH244RR×LH324, HC33CRW×LH287BTCRW and TR47×TR 7322 BT) are treated in 2 replications against larvae of the beet armyworm (Spodoptera exigua). Application is carried out by dip application with the respective active compound at the desired application rate.
as §1

The test system of test [5] is cotton aphid (Aphis gossypii). Put plainly: Example 4: Aphis gossypii on Cotton (DP444 BG/RR), dip application, kill in %. To be noted: 0.8 ppm. How it is done: Individually potted transgenic cotton plants with Lepidoptera resistance and herbicide resistance (cultivar DP444 BG/RR), which are populated by a mixed population of the cotton aphid (Aphis gossypii) are treated by dip application with the respective active compound.
After the desired period of time, the kill in % is determined. 100% means that all aphids have been killed; 0% means that none of the aphids have been killed.

Test [6] relates to larvae of the banded cucumber beetle (Diabrotica balteata). Put plainly: Example 7: Diabrotica balteata on Maize, drench application, kill in %. To be noted: 100 ppm. As for the experimental part: Pots with in each case 5 transgenic maize plants having Coleoptera, Lepidoptera and/or herbicide resistance (cultivars LH244RR×LH324 and HCL 201CRW2RR2×LH 324) are treated in 2 replications against larvae of the banded cucumber beetle (Diabrotica balteata). Application is carried out by drench application with the respective active compound at the desired application rate.
After the desired period of time, the kill in % is determined. 100% means that all beetle larvae have been killed; 0% means that none of the beetle larvae have been killed.

The test system of test [7] is armyworm (Spodoptera frugiperda). Put plainly: Example 6: Spodoptera frugiperda on Cotton (DP444 BG/RR), dip application, kill in %. As for the experimental part:
Individually potted transgenic cotton plants with Lepidoptera resistance and herbicide resistance (cultivar DP444 BG/RR) are treated in 2 replications against the armyworm (Spodoptera frugiperda). Application is by dip application with the respective active compound at the desired application rate.
as §1

As to `O=C1C=C(N(CCF)Cc2ccc(Cl)nc2)CO1` [Compound I-4, 4-{[(6-chloropyrid-3-yl)methyl](2-fluoroethyl)amino}furan-2(5H)-one], the “Kill rate in % after 4d (found)” value in test [1] (100 ppm), in test [3] and in test [4] was 0% throughout. Also, the “Kill rate in % after 6d (found)” value in test [2] and in test [5] (after 6 d) was 15% in each case.
On to `O=C1C=C(N(Cc2ccc(Cl)nc2)CC(F)F)CO1` [Compound I-5, 4-{[(6-chloropyrid-3-yl)methyl](2,2-difluoroethyl)amino}furan-2(5H)-one], for which the “Kill rate in % after 1d (found)” value in test [3] (after 1 d) was found to be 0%; in test [5] (after 1 d) it was 40%. Further, the “Kill rate in % after 4d (found)” value in test [3] was 10%; in test [7] (20 ppm, after 4 d), 0%. Moreover, the “Kill rate in % after 10d (found)” value in test [6] was 45%.
Regarding `CN(Cc1cnc(Cl)c(F)c1)C1=CC(=O)OC1` [Compound I-6, 4-{[(6-chloro-5-fluoropyrid-3-yl)methyl](methyl)amino}furan-2(5H)-one], the “Kill rate in % after 4d (found)” value in test [1] (20 ppm), in test [3] and in test [4] was 0% each time. The “Kill rate in % after 6d (found)” value was determined as 0% in test [2] and 20% in test [7] (100 ppm, after 6 d).
As to `CN(Cc1ccc(Cl)nc1)C1=CC(=O)OC1` [Compound I-10, 4-{[(6-chloropyrid-3-yl)methyl](methyl)amino}furan-2(5H)-one], the “Kill rate in % after 6d (found)” value in test [2] came out at 0%. In addition, the “Kill rate in % after 4d (found)” value in test [4] is reported as 10%.
